Experiments:
[1] = tested on: proteasome activities in Jurkat cells; test: Cell-based luminescent proteasome assay in Jurkat cells; settings: 1.5 hours inhibitor exposure
Method: FIG. 3. Luminescence versus proteasome inhibitor concentration in Jurkat cells. Jurkatt cells were exposed to inhibitor (AdaAhxL3VS) for 1.5 hours and then contacted with LLVY-aminoluciferin (final concentration of 10 μM; SEQ ID NO:1).
NCI-H226 cells (ATCC #CRL-5826) were maintained as an attached line using RPMI 1640 (Sigma #R-8005) with 10% fetal bovine serum (Hyclone # SH30070) and passaged as needed. Jurkat, HL-60 and U937 suspension cell lines were likewise maintained and passaged. To prepare cells for a cell-based proteasome assay, adherent cells were harvested from the parent flask by removing medium, rinsing the flask with D-PBS and incubated with trypsin-EDTA (Sigma T-4040) for 3 to 4 minutes at 37° C. The trypsin reaction was stopped by adding complete medium containing serum, and cells were then centrifuged 4 minutes at 200×G. The cell pellet was suspended in fresh medium, cells counted by trypan blue exclusion and adjusted to 1.11×10^5 cells/ml. […]
For instance, one vial of V859A (Luciferin Detection Reagent) is suspended with 10 ml of buffer to which 50 to 100 μl of substrate is added, and 100 μl of cells are combined with 100 μl of substrate containing reagent. […] This pre-incubation depletes the free aminoluciferin present in the substrate, thereby reducing potential background luminescence. […]

[2] = tested on: U266 cells; test: Toxicity of proteasome inhibitor incubation to cells; assay type: cell-based
[3] = target: T1, calpain I (Homo sapiens, UniProt P07384); test: Lactacystin activity on purified calpain, LLVY-aminoluciferin luminescence; assay type: biochemical; settings: 0.5 hour preincubation, calcium present (FIG. 2A)
T1 sequence (P07384 1-714): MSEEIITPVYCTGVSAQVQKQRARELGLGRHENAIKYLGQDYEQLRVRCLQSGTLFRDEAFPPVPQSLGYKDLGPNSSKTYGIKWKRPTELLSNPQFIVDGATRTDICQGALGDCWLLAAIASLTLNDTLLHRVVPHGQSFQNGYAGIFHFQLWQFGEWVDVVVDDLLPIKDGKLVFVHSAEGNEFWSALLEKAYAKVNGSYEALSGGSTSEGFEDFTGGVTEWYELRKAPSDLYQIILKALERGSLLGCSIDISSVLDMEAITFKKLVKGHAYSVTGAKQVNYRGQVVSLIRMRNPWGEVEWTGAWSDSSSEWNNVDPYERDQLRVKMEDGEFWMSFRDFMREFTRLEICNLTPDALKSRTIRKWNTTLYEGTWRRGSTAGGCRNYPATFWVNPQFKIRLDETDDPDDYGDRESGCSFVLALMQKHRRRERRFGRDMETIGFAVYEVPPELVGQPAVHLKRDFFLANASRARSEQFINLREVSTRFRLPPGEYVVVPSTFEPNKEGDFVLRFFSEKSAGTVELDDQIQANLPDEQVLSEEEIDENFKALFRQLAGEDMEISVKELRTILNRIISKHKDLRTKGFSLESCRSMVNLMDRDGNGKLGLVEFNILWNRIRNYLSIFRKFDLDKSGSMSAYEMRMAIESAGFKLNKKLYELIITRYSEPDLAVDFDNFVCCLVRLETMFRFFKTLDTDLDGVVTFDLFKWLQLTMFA
T1 sequence (P04632 1-268 partner): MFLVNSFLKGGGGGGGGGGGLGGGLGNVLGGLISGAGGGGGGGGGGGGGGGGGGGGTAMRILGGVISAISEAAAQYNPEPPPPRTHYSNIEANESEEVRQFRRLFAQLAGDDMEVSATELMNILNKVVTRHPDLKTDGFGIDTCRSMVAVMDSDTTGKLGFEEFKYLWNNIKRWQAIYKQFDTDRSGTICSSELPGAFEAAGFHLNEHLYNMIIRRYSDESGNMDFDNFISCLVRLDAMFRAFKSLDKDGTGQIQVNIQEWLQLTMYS
Method: (§1) After a 0.5 hour preincubation in 25 mM HEPES/0.5 mM EDTA/1 mM DTT, a 2×reagent was added (20 μM LLVY-aminoluciferin (SEQ ID NO:1)/3 mM CaCL2/10 mM MgSO4).

[4] = target: proteasomes (Homo sapiens, UniProt P28074); test: Lactacystin activity on proteasomes, LLVY-aminoluciferin luminescence with DTT; assay type: biochemical; settings: at 20 μM, with DTT included (FIG. 2A)
Method: as §1

[5] = tested on: HL-60 cells; test: ATP content (viability), CellTiter-Glo; assay type: cell-based; settings: 1.5 hours treatment, concentrations tested
Source text: (§2) Cell viability measurements were made using CellTiter Glo (Promega Corp.) in a parallel series of samples to confirm that viability was not affected by lactacystin treatment.

[6] = tested on: U937 cells; test: ATP content (viability), CellTiter-Glo; assay type: cell-based; settings: 1.5 hours treatment, concentrations tested
Source text: as §2

| Compound | chymotrypsin-like, trypsin-like and caspase-like proteasome activities [1] | toxicity to the cells, short incubations ([2]; incubation for 1 to 2 hours) | toxicity to the cells, longer incubation times ([2]; longer incubation times) | effect on calpain I [3] | inhibition of the proteasome [4] | cell viability (ATP assay, CellTiterGlo) [5] | cell viability (ATP assay, CellTiterGlo) [6] |
| --- | --- | --- | --- | --- | --- | --- | --- |
| CC(C)CC(C=CS(C)(=O)=O)NC(=O)[C@H](CC(C)C)NC(=O)[C@H](CC(C)C)NC(=O)CCCCCNC(=O)CCCCCNC(=O)CCCCCNC(=O)CC12CC3CC(CC(C3)C1)C2 (stereo partly shown) [AdaAhx3L3VS, adamantane-acetyl-(6-aminohexanoyl)3-(leucinyl)3-vinyl-(methyl)-sulfone] | blocked all three activities | not toxic | induced apoptosis | – | – | – | – |
| CC(=O)N[C@@H](CSC(=O)[C@]1([C@@H](O)C(C)C)NC(=O)[C@H](C)[C@@H]1O)C(=O)O [lactacystin] | – | – | – | minimal effect | incomplete inhibition | did not kill the cells | did not kill the cells |
